Test results from patent US20080269116A1 (priority 2004, published 2008).
Where no end group is shown, it is not given here. The star is where a group is joined. Octanoyl = CCCCCCCC(=O)*

Key:
GHS-R = biological target: T1, GHS-R (Homo sapiens, UniProt Q92847); assay: Intracellular calcium mobilization in cultured human T cells (Fura-2); type: cell-based
T1 construct: endogenous in cells; host or cells: cultured human T cells
Protocol: Intracellular calcium mobilization. […] Cells were incubated in PBS containing 5 μM Fura-2 AM for 30 minutes at room temperature. The cells were subsequently washed and then resuspended at 1×10^6/mL in PBS. A total of 2 mL of the cell suspension was placed in a continuously stirring cuvette at room temperature in an LS50B spectrophotometer (Perkin-Elmer, Wellesley, Mass.). Fluorescence was monitored at λex1=340 nm, λex2=380 nm, and λem=510 nm. The data are presented as the relative ratio of fluorescence excited at 340 and 380 nm.

Human PBMCs = assay: Cytokine production by PHA-stimulated human PBMCs (ELISA); type: cell-based; conditions: 24 h
human T cells [1] = assay: Actin polymerization in human T cells (phalloidin staining); type: cell-based; conditions: ghrelin 100 ng/ml, 20 min
Source text: Actin Polymerization. […] Thereafter cells were fixed and permeabilized in 2% Paraformaldehyde plus 0.1% Triton-X 100 and stained for actin using phalloidin AF-594 and nucleus by DAPI.

primary human T cells [2] = assay: Cytokine production by anti-CD3-stimulated primary human T cells (ELISA); type: cell-based; conditions: immobilized anti-CD3 antibody, 24 h
Protocol: (§1) T cell isolation and culture. Peripheral blood mononuclear cells (PBMC) were obtained by Ficoll-Hypaque density centrifugation. T cells were purified from PBMC using human T cell enrichment columns (R&D systems) via high affinity negative selection according to manufacturer's instructions. […] T cells were stimulated with plate bound anti-human CD3 antibody (BD Pharmingen, San Diego, Calif.) (200 ng/ml) at a concentration of 3×10^6 cells/ml in AIM-V serum free media for 24 h.
(§2) Cytokine estimation. IL-1β, IL-6 and TNF-α were estimated in T cell supernatants after 24 h using commercial ELISA kits according to manufacturer's instructions (Biosource, Camarillo, Calif.). Serum cytokines were analyzed using Bio-Plex Mouse Cytokine 18-Plex Panel according to manufacturer's instructions (Biorad, Hercules, Calif.).

T cells or PBMCs = assay: Cytolytic effects: lactate dehydrogenase and trypan blue cell counts; type: cell-based, human; conditions: control vs hormone-treated T cells or PBMCs
Source text: The classical pro-inflammatory cytokines, IL-1a, IL-1β, IL-6 and TNF-α are known to play a critical role in development of anorexia-cachexia syndrome (Inui et al. 1999. Cancer Res. 59: 4493-4501). The anorexia-cachexia syndrome is a complex multifactorial metabolic condition associated with altered protein, carbohydrate and fat metabolism resulting in anorexia, negative energy balance, weight loss and muscle wasting (Kotler et al. 2000. Ann. Internal Med. 133: 622-634).

T cells = assay: Cytokine mRNA expression in T cells, real time RT-PCR; type: cell-based, human; conditions: normalized with GAPDH
Protocol: as §1
(§3) Real Time RT-PCR analysis. RT-PCR was performed as described previously (Nagasawa et al. Adv. Immunol. 71: 211-228 (1999)). Total RNA (2 μg) and oligo-dT primers were used to synthesize single-stranded cDNA using the Reverse Transcription kit (Life Technologies, Gaithersburg, Md.) according to manufacturer's instructions. The PCR was set up using SYBR green Master Mix (Applied Biosystems), 1 μl cDNA and gene-specific primers at a final concentration of 0.3 μM. Thermal cycling was carried out on the Applied Biosystems GeneAmp 7700 Sequence Detector and SYBR green dye intensity was analyzed using GeneAmp 7700 SDS software. […] Mouse IL-1β, IL-6, TNF-α, GAPDH and human GHS-R1a primers were designed using ABI prism software (PE Applied Biosystems). The PCR product of the GHS-R 1a amplification was quantitated using the Agilent 2100 Bioanalyzer (Agilent Technologies, Palo Alto, Calif.). Primers are available upon request. No PCR products were generated from genomic versus cDNA template.

primary human T cells [3] = assay: Leptin-induced cytokine protein and mRNA expression in anti-CD3-activated human T cells; type: cell-based; conditions: 24 h
Protocol: as §1, §2, §3

human T cells [4] = assay: T cell proliferation and IL-2 levels after anti-CD3 mAb and ghrelin; type: cell-based; conditions: anti-CD3 mAb and ghrelin treatment
LPS-induced endotoxemia [5] = assay: LPS-induced endotoxemia in mice: tissue cytokine mRNA, real time PCR; type: in vivo, BALB/c mice; conditions: for TNF-α expression: 24 h post LPS
Protocol: (§4) Mice. Male 20-22 g BALB/c mice (Taconic, Germantown, N.Y.), 8-10 weeks old, were used. The guidelines proposed by the committee for the Care of Laboratory Animal Resources Commission of Life Sciences-National Research Council were followed to minimize animal pain and distress. Each animal received rodent laboratory chow and ad libitum water.
(§5) LPS-induced inflammation. Endotoxin shock in mice was induced by intraperitoneal (i.p.) injection with 10 μg of LPS (E. coli serotype 055:B5, Sigma) as described previously (Bochkov et al. 2002. Nature. 419: 77-8). […] Mice were sacrificed 4 h and 24 h post-LPS challenge and visceral organs and serum were collected.
as §3

LPS-induced endotoxemia [6] = assay: LPS-induced endotoxemia in mice: serum cytokine levels (Bio-Plex); type: in vivo, BALB/c mice
Protocol: as §4, §5, §2

LPS-induced anorexia = assay: Food intake in LPS-challenged and control mice; type: in vivo, BALB/c mice
Protocol: as §4, §5

human T cells [7] = assay: Effect of leptin on ghrelin and GHS-R expression in human T cells; type: cell-based
Protocol: as §1
as §3, with “No PCR products were generated from genomic versus cDNA template.” left out

[8] = PHA 1 μg/ml, ghrelin 1 to 100 ng/ml
[9] = spleen and liver, 4 and 24 h post LPS, ghrelin 5 mg/kg i.p.
[10] = ghrelin alone vs sham control mice
[11] = leptin alone, primary human T cells and PBMCs

T1 sequence (Q92847 whole entry): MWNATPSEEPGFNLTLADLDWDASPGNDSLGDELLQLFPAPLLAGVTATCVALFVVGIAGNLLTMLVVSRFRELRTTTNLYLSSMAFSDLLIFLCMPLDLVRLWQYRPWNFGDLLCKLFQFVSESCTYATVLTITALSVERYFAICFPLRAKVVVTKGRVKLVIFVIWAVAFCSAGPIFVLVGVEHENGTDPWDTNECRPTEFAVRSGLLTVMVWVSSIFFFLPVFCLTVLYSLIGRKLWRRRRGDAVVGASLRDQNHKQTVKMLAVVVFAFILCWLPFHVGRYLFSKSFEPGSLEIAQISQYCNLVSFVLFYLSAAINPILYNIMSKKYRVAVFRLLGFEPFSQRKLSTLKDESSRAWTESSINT

Gly-Ser-Ser(n-Octanoyl)-Phe-Leu-Ser-Pro-Glu-His-Gln-Arg-Val-Gln-Gln-Arg-Lys-Glu-Ser-NH2 (GSS(Octanoyl)FLSPEHQRVQQRKES-NH2; N-terminus assumed; SMILES CCCCCCCC(=O)OC[C@H](NC(=O)[C@H](CO)NC(=O)CN)C(=O)N[C@@H](Cc1ccccc1)C(=O)N[C@@H](CC(C)C)C(=O)N[C@@H](CO)C(=O)N1CCC[C@H]1C(=O)N[C@@H](CCC(=O)O)C(=O)N[C@@H](Cc1c[nH]cn1)C(=O)N[C@@H](CCC(N)=O)C(=O)N[C@@H](CCCNC(=N)N)C(=O)N[C@H](C(=O)N[C@@H](CCC(N)=O)C(=O)N[C@@H](CCC(N)=O)C(=O)N[C@@H](CCCNC(=N)N)C(=O)N[C@@H](CCCCN)C(=O)N[C@@H](CCC(=O)O)C(=O)N[C@@H](CO)C(N)=O)C(C)C) [ghrelin 1-18 fragment]
rise in intracellular [Ca^2+] (GHS-R; cultured human T cells, ghrelin 100 ng/ml): significant and specific rise in intracellular [Ca^2+]

[D-Lys-3]-GHRP-6 [reference compound]
effect on ghrelin-mediated intracellular calcium release (GHS-R; pretreatment with antagonist 10^−4 M, then ghrelin 100 ng/ml): markedly attenuated | effect on ghrelin-mediated inhibition of cytokine production (Human PBMCs; antagonist 10^−4 M added with ghrelin, PHA-stimulated PBMCs): attenuated this ghrelin-mediated inhibition

ghrelin
actin polymerization / polarization of F-actin (human T cells [1]): marked increase in broad membrane structures characteristic of lamellipodia with typical polarization of F-actin | TGF-β production (Human PBMCs; PHA 1 μg/ml, any concentration tested): failed to alter TGF-β production | IL-1β production (Human PBMCs; [8]): significant inhibition | IL-6 production (Human PBMCs; [8]): significant inhibition | TNF-α production (Human PBMCs; [8]): significant inhibition | IL-1β production (primary human T cells [2]): significant dose-dependent inhibition | IL-6 production (primary human T cells [2]): significant dose-dependent inhibition | cytolytic effects (LDH, cell counts by trypan blue exclusion) (T cells or PBMCs): failed to demonstrate any significant difference between control and hormone-treated cells | IL-1β mRNA expression (T cells): significantly inhibits | IL-6 mRNA expression (T cells): significantly inhibits | TNF-α mRNA expression (T cells): significantly inhibits | leptin-induced cytokine protein and gene expression (IL-1β, IL-6, TNF-α) (primary human T cells [3]; ghrelin co-incubated with leptin 100 nM, T cells): dose-dependent inhibition | IL-2 secretion (human T cells [4]): no significant effects | T cell proliferation (human T cells [4]): no significant effects | TNF-α expression (LPS-induced endotoxemia [5]; liver): inhibited | IL-1β mRNA expression (LPS-induced endotoxemia [5]; [9]): attenuation | IL-6 mRNA expression (LPS-induced endotoxemia [5]; [9]): attenuation | TNF-α mRNA (LPS-induced endotoxemia [5]; spleen and liver, 4 h post LPS): Attenuation | TNF-α expression (LPS-induced endotoxemia [5]; spleen): remained unchanged | serum IL-1β (LPS-induced endotoxemia [6]; 24 h after LPS challenge): significant inhibition | serum IL-6 (LPS-induced endotoxemia [6]; 24 h after LPS challenge): significant inhibition | serum ILα levels (LPS-induced endotoxemia [6]; 24 h post LPS and ghrelin treatment): inhibited | Serum IL-1α level (LPS-induced endotoxemia [6]; [10]): significantly inhibited | Serum IL-1β level (LPS-induced endotoxemia [6]; [10]): significantly inhibited | circulating IL-6 level (LPS-induced endotoxemia [6]; serum, 4 h): but not in IL-1β (FIG. 7a) or IL-6 | circulating TNF-α level (LPS-induced endotoxemia [6]; serum, 4 h): significant change | LPS-induced anorexia (food intake) (LPS-induced anorexia; 24 h post ghrelin and LPS, prior ghrelin treatment): significant attenuation of this LPS-induced anorexia | increase in food intake compared to sham controls (LPS-induced anorexia; ghrelin-treated control mice in the absence of LPS challenge, 24 h): 30%

leptin: a member of gp130 family of cytokines, regarded as a pro-inflammatory inducer
IL-1β protein and mRNA expression (primary human T cells [3]; [11]): significant dose-dependent increase | IL-6 protein and mRNA expression (primary human T cells [3]; [11]): significant dose-dependent increase | TNF-α protein and mRNA expression (primary human T cells [3]; [11]): significant dose-dependent increase | ghrelin protein production or gene expression (human T cells [7]; anti-CD3-stimulated T cells, 24 h): failed to exert any significant effects | GHS-R mRNA expression (human T cells [7]; human T cells, real time RT-PCR): significant increase
